# Results: patent US7384912B2, “Treatment of bone disorders with skeletal anabolic drugs” (Osteotrophin, LLC, priority 2002, dated 2008)
# No end group written: not given here.
# Legend:
# [1] = tested on: ovariectomized osteopenic rats; conditions: ovariectomized osteopenic rats (Vickery et al.); cited from earlier work
# [2] = molecular target: T1, PTH/PTHrP receptors in canine renal membranes (Canis lupus familiaris, UniProt Q9TU31); experiment: Competition binding to canine renal cortical membranes; conditions: Scatchard analysis of equilibrium binding data
# T1 construct: The renal cortex from adult mongrel dogs was homogenized; from tissue; host or cells: renal cortex of adult mongrel dogs, purified membranes
# T1 sequence (Q9TU31 29-595): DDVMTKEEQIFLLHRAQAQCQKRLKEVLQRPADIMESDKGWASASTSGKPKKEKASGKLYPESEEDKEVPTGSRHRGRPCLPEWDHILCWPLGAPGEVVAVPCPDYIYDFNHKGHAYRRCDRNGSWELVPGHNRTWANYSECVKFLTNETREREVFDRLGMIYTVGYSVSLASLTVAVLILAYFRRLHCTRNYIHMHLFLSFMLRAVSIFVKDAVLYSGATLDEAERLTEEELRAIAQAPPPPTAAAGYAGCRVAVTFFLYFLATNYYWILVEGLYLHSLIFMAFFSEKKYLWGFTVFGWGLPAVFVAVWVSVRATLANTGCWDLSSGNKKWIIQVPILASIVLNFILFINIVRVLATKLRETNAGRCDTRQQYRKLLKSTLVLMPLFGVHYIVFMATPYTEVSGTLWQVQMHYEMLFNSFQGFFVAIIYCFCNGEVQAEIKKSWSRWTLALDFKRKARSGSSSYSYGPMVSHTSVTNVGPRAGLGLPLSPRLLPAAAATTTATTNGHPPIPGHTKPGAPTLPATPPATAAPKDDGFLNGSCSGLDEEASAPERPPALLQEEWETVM
# Procedure: The renal cortex from adult mongrel dogs was homogenized in 3 volumes (ml:gm) of 0.25 M sucrose containing 5.0 mM Tris HCl (pH 7.5), 1.0 mM EDTA, 6.5 KIU/ml aprotinin and 50 μg/ml bacitracin (SET buffer) at 4° C. with ten 30 second strokes of a motor-driven teflon pestle at 2000 RPM. The homogenate was filtered through one thickness of nylon mesh and centrifuged at 1475×g for 10 mm. The supernatant was discarded and the pellet resuspended in 1 volume of 2.0 M sucrose, 5 mM Tris HCl, 1 mM EDTA (pH 7.5), 6.5 KIU/ml aprotinin, and 50 μg/ml bacitracin. This was centrifuged at 13,300×g for 10 minutes and the pellet discarded. The supernatant was diluted 8-fold with ET buffer (5 mM Tris HCl, 1 mM EDTA (Ph 7.5), 6.5 KIU/ml aprotinin, and 50 μg/ml bacitracin) and centrifuged at 20,000×g for 15 min. […]
# Binding assays were conducted in siliconized 12×75 mm borosilicate glass test tubes at 20° C. in a final volume of 0.2 ml. […] Radioactivity in both the pellet and supernatant was measured.
# Dissociation constants (Kd) were determined by Scatchard analysis of the data obtained from competitive binding experiments using radioligand and increasing concentrations of unlabeled ligand. […] Statistical differences were assessed by paired Student's t test. […] Significance was determined using a partial F-test.
# [3] = tested on: adenylate cyclase in SaOS-2 intact cells; experiment: Adenylate cyclase assay in SaOS-2 intact cells; assay type: cell-based, human; conditions: 15° C., 60 min
# Procedure: Adenylate cyclase-stimulating activity was examined in confluent SAOS-2 cells as previously described for ROS 17/2.8 cells (Merendino et al., Science 231:388-390, (1986)), with the following modification. The intact cell assay was conducted at 15° C., the same conditions employed for binding to intact SaOS-2 cells (vide supra). […] Dose response curves for each peptide were thus generated using 60 min incubations at 15° C. under binding assay conditions.
# (§1) Statistical differences were assessed by paired and unpaired two-tailed Student's t test.
# [4] = molecular target: T2, PTH/PTHrP receptors on SaOS-2 intact cells (Homo sapiens, UniProt Q03431); experiment: Competition binding of 125I-(Tyr36)hPTHrP-(1-36)NH2 to SaOS-2 intact cells
# T2 sequence (Q03431 27-593): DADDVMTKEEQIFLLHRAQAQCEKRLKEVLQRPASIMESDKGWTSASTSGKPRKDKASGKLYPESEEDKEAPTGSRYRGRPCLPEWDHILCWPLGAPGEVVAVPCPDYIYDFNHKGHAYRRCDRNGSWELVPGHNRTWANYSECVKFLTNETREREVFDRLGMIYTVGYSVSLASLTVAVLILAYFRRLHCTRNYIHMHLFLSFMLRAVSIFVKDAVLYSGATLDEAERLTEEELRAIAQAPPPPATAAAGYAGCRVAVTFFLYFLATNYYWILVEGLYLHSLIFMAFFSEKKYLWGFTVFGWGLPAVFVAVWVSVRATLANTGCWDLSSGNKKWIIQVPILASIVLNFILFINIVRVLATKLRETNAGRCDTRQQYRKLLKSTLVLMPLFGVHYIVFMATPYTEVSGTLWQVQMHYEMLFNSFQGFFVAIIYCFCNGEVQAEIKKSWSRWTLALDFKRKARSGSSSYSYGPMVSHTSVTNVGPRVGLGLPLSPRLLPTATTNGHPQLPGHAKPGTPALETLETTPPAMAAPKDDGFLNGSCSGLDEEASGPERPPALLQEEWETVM
# Procedure: The medium was changed every other day, and studies were performed at 5-7 days post confluence. Cell numbers were determined using a Coulter counter.
# Binding studies were conducted at 15° C. in the presence of chymostatin (100 μg/ml) and bacitracin (200 μg/ml). […] The incubation time of 150 min was therefore used for competitive binding studies.
# [5] = molecular target: T3, PTH/PTHrP receptors in human renal cortical membranes (RCM) (Homo sapiens, UniProt Q03431); experiment: Competition binding of 125I-(Tyr36)hPTHrP-(1-36)NH2 to human renal cortical membranes
# T3 sequence (Q03431 27-593): T2 sequence (Q03431 27-593)
# Procedure: All steps were performed in the presence of the following protease inhibitors: aprotinin [10 Kallikrein inhibitor units (KIU/ml], pepstatin (5 μg/ml), leupeptin (45 μg/ml), and phenylmethanesulfanylfluoride (10 μg/ml). Normal human kidney cortex was from four separate nephrectomy specimens removed for localized transitional cell carcinoma, renal cell carcinoma, or benign cysts. Renal function in all individuals was normal as assessed by serum creatinine and pyelography. Membranes were pooled, aliquoted, and stored at −70° C. for later use.
# Human RCM were added to a final concentration of 90 μg/ml. […] The incubation time of 30 min was used for subsequent equilibrium binding competition studies.
# as §1
# [6] = molecular target: T4, PTH/PTHrP receptors in SaOS-2 membranes (Homo sapiens, UniProt Q03431); experiment: Competition binding of 125I-(Tyr36)hPTHrP-(1-36)NH2 to SaOS-2 membranes; conditions: 30° C., 60 min
# T4 sequence (Q03431 27-593): T2 sequence (Q03431 27-593)
# Procedure: Briefly, postconfluent cells in 150 cm^2 flasks were scraped into membrane buffer [10 mM Tris HCl (pH 7.5), 0.2 mM MgCl2, 0.5 mM EGTA, 1 mM dithiothreitol, leupeptin 45 μg/ml, pepstatin 5 μg/ml, aprotinin 10 KIU/ml, and phenylmethane sulfanyl-fluoride 10 μg/ml] at 0° C. Cell disruption was achieved by sonification and the suspension was centrifuged at 13,000×g for 15 min at 4° C. […] The suspension was layered onto a cushion of the membrane buffer containing 45% sucrose and centrifuged at 70,000×g for 30 min at 4° C. […] Protein concentrations were determined by the method of Lowry using BSA as standard.
# The binding assay for SaOS-2 membranes was conducted as for human RCM. Membranes were added to a final concentration of 112.5 μg/ml and specific binding reached equilibrium by 60 min at 30° C.
# [7] = molecular target: T5, adenylate cyclase in human renal cortical membranes (RCM) (Homo sapiens, UniProt Q03431); experiment: Adenylate cyclase assay in human kidney membranes; assay type: biochemical; conditions: both membrane preparations (RCM and SaOS-2 membranes)
# T5 sequence (Q03431 27-593): T2 sequence (Q03431 27-593)
# Procedure: (§2) Therefore, dose response curves for each peptide were generated at 30° C. for 10 min in human kidney and 30° C. for 30 min in SaOS-2 membranes. As with the intact cell adenylate cyclase assays, kidney and bone cell membrane adenlyate cyclase assays were performed under binding assay conditions. Results are expresses as percentage of maximal cAMP stimulation in order to compare peptide dose responses from different experiments.
# as §1
# [8] = tested on: adenylate cyclase in SaOS-2 membranes; experiment: Adenylate cyclase assay in SaOS-2 cell membranes; assay type: biochemical, human; conditions: 30° C., 30 min
# Procedure: as §2, §1
# [9] = tested on: ovariectomized (OVX) rats; experiment: Body weight, serum chemistries, kidney calcium and deaths in ovariectomized rats
# Procedure: All studies were performed using virus- and antibody-negative female Sprague-Dawley rats from Harlan Sprague-Dawley (Indianapolis, Ind.). All rats underwent sham ovariectomy or ovariectomy at 5 months of age. Studies began at six months of age, one month following ovariectomy or sham operation. Rats were maintained on a diet containing 0.5% calcium and 0.4% phosphorus. The light cycle was 12 hours.
# The protocol employed is described in schematic form in Table IV. Animals were randomly assigned to 17 groups of 10 as described in the Table. […] For the peptide-treated animals, the peptide was administered daily, subcutaneously at a dose of 40 μg/kg/day, in the vehicle described above. For vehicle-treated animals, vehicle alone was administered in an identical fashion.
# Serum and urine chemistries as described in Table XI were performed using standard autoanalyser methods (Boehringer-Mannheim-Hitachi, Indianapolis, Ind.). Kidney calcium content was determined following extraction of whole kidneys in 5% trichloroacetic acid, followed by calcium measurement by calcium analyzer (Calcette, Midfield, Mass.).
# [10] = tested on: adenylate cyclase in highly purified canine renal membranes; experiment: Canine renal adenylate cyclase assay under binding assay conditions; assay type: biochemical; conditions: 20° C., 20 min, with bacitracin
# Procedure: Adenylate cyclase-stimulating activity of both peptides was also examined using highly purified 32% interface membranes. Incubation was carried out under binding conditions at 20° C. for 20 min in the presence of the protease inhibitor, bacitracin (200 μg/ml). All other aspects of this assay were identical to the standard assay.
# [11] = tested on: adenylate cyclase in canine renal cortical membranes (CRCM); experiment: Canine renal cortical membrane adenylate cyclase assay, standard assay; assay type: biochemical; conditions: 30 min, 30° C.
# Excerpt: Results are expressed as the percent increment in adenylate cyclase activity in tubes containing the peptides as compared with tubes containing vehicle only.
compound,measurement,setting,value
[MAP1-10]22-31 hPTHrP-(1-34)NH2,anabolic activity versus parent peptide,[1],greater anabolic activity than the parent peptide
"[Nle^8,18,Tyr^34]hPTH-(1-34)amide",Bmax,[2],2.73±0.31 pmol/mg protein
hPTHrP-(1-74),EC50,[3],9.2 ± 1 nM
same,affinity less than that of hPTHrP-(1-36),[4]; SaOS-2 cells,9 fold
same,affinity less than that of hPTHrP-(1-36),[5]; RCM,25 fold
hPTHrP-(37-74) (RATSEVSPNSKPSPNTKNHPVRFGSDDEGRYLTQETNK) [Human PTHrP fragment 37-74 prepared by solid phase synthesis],Binding (IC50) SaOS cells,"[4]; intact cells, 15° C., 150 min",did not inhibit binding
same,Binding (IC50) Kidney membranes,"[5]; human RCM, 30° C., 30 min",did not inhibit binding
same,Binding (IC50) SaOS membranes,[6],did not inhibit binding
rat (r)PTH-(1-34) [rPTH-(1-34)],EC50,[3],0.9 ± 0.1 nM
same,more potent than hPTHrP-(1-36) in stimulating adenylate cyclase,[7],10 fold
same,EC50,[8],0.09 ± 0.03 nM
"CCCC[C@H](NC(=O)[C@H](CO)NC(=O)[C@H](CC(N)=O)NC(=O)[C@H](CC(C)C)NC(=O)[C@H](Cc1c[nH]cn1)NC(=O)[C@H](CCCCN)NC(=O)CNC(=O)[C@H](CC(C)C)NC(=O)[C@H](CC(N)=O)NC(=O)[C@H](Cc1c[nH]cn1)NC(=O)[C@H](CCCC)NC(=O)[C@H](CC(C)C)NC(=O)[C@H](CCC(N)=O)NC(=O)[C@@H](NC(=O)[C@H](CCC(=O)O)NC(=O)[C@H](CO)NC(=O)[C@@H](NC(=O)[C@@H](N)CO)C(C)C)[C@@H](C)CC)C(=O)N[C@@H](CCC(=O)O)C(=O)N[C@@H](CCCNC(=N)N)C(=O)N[C@H](C(=O)N[C@@H](CCC(=O)O)C(=O)N[C@@H](Cc1c[nH]c2ccccc12)C(=O)N[C@@H](CC(C)C)C(=O)N[C@@H](CCCNC(=N)N)C(=O)N[C@@H](CCCCN)C(=O)N[C@@H](CCCCN)C(=O)N[C@@H](CC(C)C)C(=O)N[C@@H](CCC(N)=O)C(=O)N[C@@H](CC(=O)O)C(=O)N[C@H](C(=O)N[C@@H](Cc1c[nH]cn1)C(=O)N[C@@H](CC(N)=O)C(=O)N[C@@H](Cc1ccc(O)cc1)C(=O)O)C(C)C)C(C)C [(Nle^8,18Tyr^34)hPTH-(1-34), (Nle^8,18, Tyr^34)hPTH-(1-34)]",EC50,[3],2.3 ± 0.4 nM
same,EC50,[8],1.9 ± 0.4 nM
"SVSEIQLLHDKGKHLASQERVEWLRKKLQDVHTA [SDZ PTH 893, Leu^8, Asp^10, Lys^11, Ala^16, Gln^18, Thr^33, Ala^34hPTH(1-34)]",treated animals that died during the study,"[9]; 30 OVX rats per peptide, 40 μg/kg/day, six month study",13%
same,"renal calcium content, in words","[9]; rat, in vivo",marked increases in renal calcium content
"AVSEHQLLHDKGKSIQDLRRRIFLQNLIEGVNTAEY-NH2 [(Tyr^36)cPTHrP-(1-36)NH2, (Tyr^36) chicken (c)PTHrP-(1-36)amide]",IC50,"[5]; human RCM, 30° C., 30 min, read-out: Binding (IC50) Kidney membranes",0.47 ± 0.22 nM
same,IC50,[6],1.1 ± 0.3 nM
bovine (b)PTH-(1-34) [bPTH-(1-34)],EC50,[3],1.2 ± 0.1 nM
same,adenylate cyclase stimulation greater than for PTHrP-(1-36),[10],15 fold
same,potency relative to PTHrP-(1-36),[11],greater than 6 fold
same,EC50,[8],0.5 ± 0.06 nM
